# Tests used:
# [1] = target: Muscarinic acetylcholine receptor M1 (Homo sapiens) (UniProt P11229); assay: Activity against M1/HU in the Eurofins SafetyScreen44 (BI) by Radioactive Assay; settings: Compound concentration 10.0 uM
# [2] = target: Voltage-dependent N-type calcium channel subunit alpha-1B (Rattus norvegicus) (UniProt Q02294); assay: Activity against CA+/N/RA in the Eurofins SafetyScreen44 (BI) by Radioactive Assay; settings: Compound concentration 10.0 uM
# [3] = target: Prostaglandin E2 receptor EP4 subtype (Homo sapiens) (UniProt P35408); assay: Activity against EP4/H in the Eurofins SafetyScreen44 (BI) by Radioactive Assay; settings: Compound concentration 10.0 uM
# [4] = target: Protein kinase C alpha type (Mus musculus) (UniProt P20444); assay: Inhibitor of PHORBOLE/M in the Eurofins SafetyScreen44 (BI) by Radioactive Assay; settings: Compound concentration 10.0 uM
# [5] = target: Beta-1 adrenergic receptor (Homo sapiens) (UniProt P08588); assay: Activity against BETA1/HU in the Eurofins SafetyScreen44 (BI) by Radioactive Assay; settings: Compound concentration 10.0 uM
# [6] = target: Acetylcholine receptor subunit alpha (Homo sapiens) (UniProt P02708); assay: Activity against NACH/H in the Eurofins SafetyScreen44 (BI) by Radioligand Binding; settings: Compound concentration 10.0 uM
# [7] = target: Sodium-dependent serotonin transporter (Homo sapiens) (UniProt P31645); assay: Activity against 5HTTRANS/HU in the Eurofins SafetyScreen44 (BI) by Radioactive Assay; settings: Compound concentration 10.0 uM
# [8] = target: L-type calcium channel, Cav1.2 alpha-1C (CA+/DILSI/RA) (Rattus norvegicus, UniProt P22002); assay: Activity against CA+/DILSI/RA in the Eurofins SafetyScreen44 (BI) by Radioactive Assay; settings: compound concentration 10 uM, read-out: % Ctrl
# Chain of Acetylcholine receptor subunit alpha (Homo sapiens) (P02708 whole entry): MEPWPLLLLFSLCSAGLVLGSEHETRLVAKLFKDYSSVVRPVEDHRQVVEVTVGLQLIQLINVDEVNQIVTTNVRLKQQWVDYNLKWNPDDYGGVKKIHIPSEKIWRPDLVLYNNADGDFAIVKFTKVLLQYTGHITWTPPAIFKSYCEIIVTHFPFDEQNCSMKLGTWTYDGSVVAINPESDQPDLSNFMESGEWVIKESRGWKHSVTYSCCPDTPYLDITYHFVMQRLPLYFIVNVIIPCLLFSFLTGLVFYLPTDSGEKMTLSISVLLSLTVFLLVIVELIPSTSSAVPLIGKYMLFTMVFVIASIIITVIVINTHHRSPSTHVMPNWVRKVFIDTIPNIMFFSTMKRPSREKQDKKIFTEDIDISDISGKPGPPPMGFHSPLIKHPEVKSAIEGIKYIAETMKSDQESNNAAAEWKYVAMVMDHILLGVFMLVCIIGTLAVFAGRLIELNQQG
# Chain of Sodium-dependent serotonin transporter (Homo sapiens) (P31645 whole entry, looked up): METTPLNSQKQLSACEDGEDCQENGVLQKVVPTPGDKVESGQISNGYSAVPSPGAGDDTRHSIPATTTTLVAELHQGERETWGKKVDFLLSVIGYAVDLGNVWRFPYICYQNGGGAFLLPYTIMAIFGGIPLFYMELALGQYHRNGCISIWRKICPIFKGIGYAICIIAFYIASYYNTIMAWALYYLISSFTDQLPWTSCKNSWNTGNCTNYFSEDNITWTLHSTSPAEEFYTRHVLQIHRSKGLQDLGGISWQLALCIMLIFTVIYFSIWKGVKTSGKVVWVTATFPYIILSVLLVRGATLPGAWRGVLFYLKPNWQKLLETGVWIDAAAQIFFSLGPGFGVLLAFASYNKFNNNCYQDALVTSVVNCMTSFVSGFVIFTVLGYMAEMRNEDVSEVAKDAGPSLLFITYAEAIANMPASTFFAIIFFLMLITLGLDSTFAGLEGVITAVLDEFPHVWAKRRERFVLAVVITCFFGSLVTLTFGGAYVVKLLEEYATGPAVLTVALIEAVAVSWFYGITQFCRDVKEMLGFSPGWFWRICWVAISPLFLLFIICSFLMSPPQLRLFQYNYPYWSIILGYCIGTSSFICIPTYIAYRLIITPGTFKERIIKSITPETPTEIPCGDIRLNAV
# Chain of Voltage-dependent N-type calcium channel subunit alpha-1B (Rattus norvegicus) (Q02294 whole entry, looked up): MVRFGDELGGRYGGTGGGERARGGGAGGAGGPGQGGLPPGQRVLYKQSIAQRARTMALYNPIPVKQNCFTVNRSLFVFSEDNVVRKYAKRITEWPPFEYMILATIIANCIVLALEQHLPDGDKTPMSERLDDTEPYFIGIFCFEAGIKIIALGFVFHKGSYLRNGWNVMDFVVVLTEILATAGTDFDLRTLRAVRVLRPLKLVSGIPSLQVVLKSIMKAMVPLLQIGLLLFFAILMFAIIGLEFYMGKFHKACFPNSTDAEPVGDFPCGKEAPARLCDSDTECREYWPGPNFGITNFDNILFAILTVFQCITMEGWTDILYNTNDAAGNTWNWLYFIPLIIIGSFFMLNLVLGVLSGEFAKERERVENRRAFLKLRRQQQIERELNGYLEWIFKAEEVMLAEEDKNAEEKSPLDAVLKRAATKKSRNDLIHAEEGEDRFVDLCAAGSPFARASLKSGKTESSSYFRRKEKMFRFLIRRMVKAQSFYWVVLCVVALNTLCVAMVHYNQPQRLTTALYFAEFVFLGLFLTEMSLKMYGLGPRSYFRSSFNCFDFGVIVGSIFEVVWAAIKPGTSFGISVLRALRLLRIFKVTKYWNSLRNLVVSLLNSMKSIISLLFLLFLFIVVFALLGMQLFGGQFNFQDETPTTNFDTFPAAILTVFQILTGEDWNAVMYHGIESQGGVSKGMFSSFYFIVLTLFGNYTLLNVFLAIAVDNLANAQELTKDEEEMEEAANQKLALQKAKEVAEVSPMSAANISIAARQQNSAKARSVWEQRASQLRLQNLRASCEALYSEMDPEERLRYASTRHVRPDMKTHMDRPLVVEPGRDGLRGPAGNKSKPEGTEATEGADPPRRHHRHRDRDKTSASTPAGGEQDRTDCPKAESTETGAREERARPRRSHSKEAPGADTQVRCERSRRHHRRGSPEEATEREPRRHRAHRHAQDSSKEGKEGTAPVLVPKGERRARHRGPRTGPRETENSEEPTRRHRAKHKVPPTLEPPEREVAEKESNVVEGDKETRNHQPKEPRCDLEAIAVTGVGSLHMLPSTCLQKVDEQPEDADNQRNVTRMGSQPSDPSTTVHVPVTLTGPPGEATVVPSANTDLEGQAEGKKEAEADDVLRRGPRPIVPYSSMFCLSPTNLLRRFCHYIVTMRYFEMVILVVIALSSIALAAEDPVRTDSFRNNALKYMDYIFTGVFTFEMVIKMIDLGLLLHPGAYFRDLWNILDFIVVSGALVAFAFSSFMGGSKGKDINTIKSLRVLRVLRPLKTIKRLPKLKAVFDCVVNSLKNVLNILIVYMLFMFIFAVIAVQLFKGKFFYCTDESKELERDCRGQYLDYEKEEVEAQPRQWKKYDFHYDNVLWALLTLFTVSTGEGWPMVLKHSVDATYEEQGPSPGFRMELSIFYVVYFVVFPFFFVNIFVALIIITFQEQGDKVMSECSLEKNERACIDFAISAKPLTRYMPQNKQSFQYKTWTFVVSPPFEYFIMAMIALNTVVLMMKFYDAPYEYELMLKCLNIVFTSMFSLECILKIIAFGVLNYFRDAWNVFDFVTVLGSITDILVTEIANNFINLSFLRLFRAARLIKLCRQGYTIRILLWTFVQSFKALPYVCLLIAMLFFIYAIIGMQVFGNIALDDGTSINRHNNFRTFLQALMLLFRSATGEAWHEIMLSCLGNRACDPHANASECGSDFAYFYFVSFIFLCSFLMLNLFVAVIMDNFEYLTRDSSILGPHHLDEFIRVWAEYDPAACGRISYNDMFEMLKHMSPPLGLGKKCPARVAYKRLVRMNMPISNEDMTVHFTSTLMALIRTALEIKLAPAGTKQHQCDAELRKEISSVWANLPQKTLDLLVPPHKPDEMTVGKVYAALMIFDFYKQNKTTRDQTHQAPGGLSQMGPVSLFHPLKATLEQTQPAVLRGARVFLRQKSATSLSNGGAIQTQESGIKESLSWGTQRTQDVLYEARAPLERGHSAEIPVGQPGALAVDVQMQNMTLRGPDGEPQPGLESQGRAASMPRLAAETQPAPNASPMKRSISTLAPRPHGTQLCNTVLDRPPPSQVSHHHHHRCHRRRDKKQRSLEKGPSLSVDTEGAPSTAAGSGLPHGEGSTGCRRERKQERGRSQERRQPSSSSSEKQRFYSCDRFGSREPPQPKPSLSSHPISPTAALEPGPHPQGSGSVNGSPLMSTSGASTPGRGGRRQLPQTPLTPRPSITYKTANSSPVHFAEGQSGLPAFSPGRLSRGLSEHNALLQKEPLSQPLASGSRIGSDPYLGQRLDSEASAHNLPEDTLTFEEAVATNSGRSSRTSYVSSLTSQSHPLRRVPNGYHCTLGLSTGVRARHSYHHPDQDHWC
# Chain of Beta-1 adrenergic receptor (Homo sapiens) (P08588 whole entry, looked up): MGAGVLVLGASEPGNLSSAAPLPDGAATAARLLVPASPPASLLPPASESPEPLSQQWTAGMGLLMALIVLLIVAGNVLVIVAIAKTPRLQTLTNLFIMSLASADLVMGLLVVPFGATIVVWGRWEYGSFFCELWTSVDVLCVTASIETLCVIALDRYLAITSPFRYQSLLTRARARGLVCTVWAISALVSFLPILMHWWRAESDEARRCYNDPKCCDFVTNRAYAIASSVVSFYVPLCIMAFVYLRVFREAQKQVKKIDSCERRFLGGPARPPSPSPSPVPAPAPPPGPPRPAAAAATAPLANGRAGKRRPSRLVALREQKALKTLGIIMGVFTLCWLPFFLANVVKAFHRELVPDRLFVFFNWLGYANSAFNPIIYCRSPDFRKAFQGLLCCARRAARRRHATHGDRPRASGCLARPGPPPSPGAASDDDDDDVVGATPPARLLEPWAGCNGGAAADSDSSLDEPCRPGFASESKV
# Chain of Prostaglandin E2 receptor EP4 subtype (Homo sapiens) (P35408 whole entry): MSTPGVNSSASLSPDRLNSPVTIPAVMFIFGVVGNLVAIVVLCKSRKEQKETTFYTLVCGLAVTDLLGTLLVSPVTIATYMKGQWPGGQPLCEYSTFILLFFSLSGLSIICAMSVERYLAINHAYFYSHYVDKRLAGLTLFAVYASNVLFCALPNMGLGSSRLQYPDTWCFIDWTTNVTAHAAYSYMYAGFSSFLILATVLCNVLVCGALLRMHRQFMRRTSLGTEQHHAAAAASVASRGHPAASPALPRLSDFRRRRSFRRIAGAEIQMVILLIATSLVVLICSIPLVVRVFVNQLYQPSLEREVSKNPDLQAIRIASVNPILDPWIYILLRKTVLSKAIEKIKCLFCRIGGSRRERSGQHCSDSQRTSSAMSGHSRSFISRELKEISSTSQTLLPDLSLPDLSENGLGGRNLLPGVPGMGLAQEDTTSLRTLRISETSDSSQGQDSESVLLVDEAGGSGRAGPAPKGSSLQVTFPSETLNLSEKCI
smiles,measurement,setting,value
COc1cc(C)c(S(=O)(=O)N(C)CCOCC(=O)N(C)[C@H]2CCC[C@@H](N3CCN(C)CC3)C2)c(C)c1,residual activity,[1],88%
same,residual activity,[2],100%
same,residual activity,[3],93%
same,residual activity,[4],102%
same,residual activity,[5],105%
same,residual activity,[6],100%
same,residual activity,[7],108%
same,activity at 10 µM,[8],86% (not active)

# From ChEMBL document CHEMBL5723587, “Data for DCP probe BI-113823” (2024)
